Experimental data reported in ChEMBL document CHEMBL1201862, “PubChem BioAssay data set” (2004).
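1) Cells in 96-well plates. 2) Compound, 48 h, 5 concentrations. 3) Linear interpolation between surrounding doses. 4) Unreached endpoint = highest concentration. Here, GI50 denotes the concentration required for 50% inhibition of growth.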 Calls of active or inactive are those of the source. Rule as the data show it: active = GI50 up to about 1.1 µM and inactive = higher.

Key:
Test in all cases: DTP human tumour cell line panel, 48 h
[1] = test system: NCI-H226
[2] = test system: OVCAR-3
[3] = test system: NCI-H23
[4] = test system: HCC 2998
[5] = test system: HOP-92
[6] = test system: NCI/ADR-RES
[7] = test system: 786-0
[8] = test system: K562
[9] = test system: A549
[10] = test system: CAKI-1
[11] = test system: SK-MEL-28
[12] = test system: KM12
[13] = test system: T47D
[14] = test system: CCRF-CEM
[15] = test system: IGROV-1
[16] = test system: SNB-19
[17] = test system: SF-268
[18] = test system: MOLT-4
[19] = test system: RXF 393
[20] = test system: SF-539
[21] = test system: COLO 205
[22] = test system: PC-3
[23] = test system: BT-549
[24] = test system: HCT-15
[25] = test system: HCT-116
[26] = test system: NCI-H460
[27] = test system: SK-MEL-5
[28] = test system: UACC-62
[29] = test system: TK-10
[30] = test system: OVCAR-4
[31] = test system: M14
[32] = test system: MDA-N
[33] = test system: LOX IMVI
[34] = test system: OVCAR-8
[35] = test system: EKVX
[36] = test system: SW-620
[37] = test system: UACC-257
[38] = test system: SN12C
[39] = test system: MCF7
[40] = test system: SK-OV-3
[41] = test system: SF-295
[42] = test system: MDA-MB-435
[43] = test system: Malme-3M
[44] = test system: ACHN
[45] = test system: A498
[46] = test system: RPMI-8226
[47] = test system: NCI-H522
[48] = test system: MDA-MB-231
[49] = test system: U-251
[50] = test system: SK-MEL-2
[51] = test system: Hs-578T
[52] = test system: OVCAR-5
[53] = test system: SNB-75
[54] = test system: DU-145
[55] = test system: HT-29
[56] = test system: HL-60
[57] = test system: HOP-62
[58] = test system: SR
[59] = test system: UO-31

OC(Cc1cc(CC(O)(C(F)(F)F)C(F)(F)F)nc(CC(O)(C(F)(F)F)C(F)(F)F)c1)(C(F)(F)F)C(F)(F)F
GI50 [1]: 2.75 µM (inactive) | GI50 [2]: 0.49 µM (active) | GI50 [3]: 0.475 µM (active) | GI50 [4]: 1.83 µM (inactive) | GI50 [5]: 0.541 µM (active) | GI50 [6]: 1.66 µM (inactive) | GI50 [7]: 1.35 µM (inactive) | GI50 [8]: > 10 µM (inactive) | GI50 [9]: 1.4 µM (inactive) | GI50 [10]: 0.321 µM (active) | GI50 [11]: 1.98 µM (inactive) | GI50 [12]: 0.482 µM (active) | GI50 [13]: 0.755 µM (active) | GI50 [14]: > 10 µM (inactive) | GI50 [15]: 0.764 µM (active) | GI50 [16]: 0.726 µM (active) | GI50 [17]: 1.88 µM (inactive) | GI50 [18]: 3.85 µM (inactive) | GI50 [19]: 2.18 µM (inactive) | GI50 [20]: 1.69 µM (inactive) | GI50 [21]: 0.918 µM (active) | GI50 [22]: 0.323 µM (active) | GI50 [23]: 2.46 µM (inactive) | GI50 [24]: 0.767 µM | GI50 [25]: 0.869 µM (active) | GI50 [26]: 0.358 µM (active) | GI50 [27]: 1.51 µM (inactive) | GI50 [28]: 0.337 µM (active) | GI50 [29]: 3.99 µM (inactive) | GI50 [30]: 0.851 µM (active) | GI50 [31]: 2.43 µM (inactive) | GI50 [32]: 1.45 µM (inactive) | GI50 [33]: 0.39 µM (active) | GI50 [34]: 1.33 µM (inactive) | GI50 [35]: 2.07 µM (inactive) | GI50 [36]: 0.574 µM (active) | GI50 [37]: 2.05 µM (inactive) | GI50 [38]: 2.2 µM (inactive) | GI50 [39]: 0.826 µM (active) | GI50 [40]: 3.96 µM (inactive) | GI50 [41]: 0.509 µM (active) | GI50 [42]: 2.39 µM (inactive) | GI50 [43]: 2.59 µM (inactive) | GI50 [44]: 0.681 µM (active) | GI50 [45]: 1.32 µM (inactive) | GI50 [46]: > 10 µM (inactive) | GI50 [47]: 3.06 µM (inactive) | GI50 [48]: 1.92 µM (inactive) | GI50 [49]: 1 µM (active) | GI50 [50]: 2.02 µM (inactive) | GI50 [51]: 1.03 µM (active) | GI50 [52]: 3.43 µM (inactive) | GI50 [53]: 1.92 µM (inactive) | GI50 [54]: 1.91 µM (inactive) | GI50 [55]: 1.63 µM (inactive) | GI50 [56]: > 10 µM (inactive) | GI50 [57]: 1.73 µM (inactive)

CC(=O)N(C(=O)CC(=O)N1N=C(C)C(/N=N/c2cccc([N+](=O)[O-])c2)C1=O)c1ccc(Cl)cc1 (stereo unspecified)
GI50 [2]: > 10 µM (inactive) | GI50 [3]: 7.03 µM (inactive) | GI50 [4]: > 10 µM (inactive) | GI50 [5]: > 10 µM (inactive) | GI50 [6]: > 10 µM (inactive) | GI50 [7]: > 10 µM (inactive) | GI50 [8]: > 10 µM (inactive) | GI50 [9]: > 10 µM (inactive) | GI50 [10]: > 10 µM (inactive) | GI50 [11]: > 10 µM (inactive) | GI50 [12]: > 10 µM (inactive) | GI50 [13]: > 10 µM (inactive) | GI50 [14]: > 10 µM (inactive) | GI50 [15]: > 10 µM (inactive) | GI50 [16]: > 10 µM (inactive) | GI50 [17]: > 10 µM (inactive) | GI50 [20]: > 10 µM (inactive) | GI50 [21]: > 10 µM (inactive) | GI50 [22]: > 10 µM (inactive) | GI50 [23]: > 10 µM (inactive) | GI50 [24]: > 10 µM | GI50 [25]: > 10 µM (inactive) | GI50 [27]: > 10 µM (inactive) | GI50 [28]: > 10 µM (inactive) | GI50 [29]: > 10 µM (inactive) | GI50 [30]: > 10 µM (inactive) | GI50 [31]: > 10 µM (inactive) | GI50 [32]: > 10 µM (inactive) | GI50 [58]: > 10 µM (inactive) | GI50 [33]: > 10 µM (inactive) | GI50 [34]: > 10 µM (inactive) | GI50 [36]: > 10 µM (inactive) | GI50 [37]: > 10 µM (inactive) | GI50 [38]: > 10 µM (inactive) | GI50 [39]: > 10 µM (inactive) | GI50 [40]: > 10 µM (inactive) | GI50 [41]: > 10 µM (inactive) | GI50 [42]: > 10 µM (inactive) | GI50 [43]: > 10 µM (inactive) | GI50 [44]: > 10 µM (inactive) | GI50 [46]: > 10 µM (inactive) | GI50 [47]: > 10 µM (inactive) | GI50 [48]: > 10 µM (inactive) | GI50 [49]: > 10 µM (inactive) | GI50 [51]: > 10 µM (inactive) | GI50 [52]: > 10 µM (inactive) | GI50 [53]: > 10 µM (inactive) | GI50 [54]: > 10 µM (inactive) | GI50 [55]: > 10 µM (inactive) | GI50 [56]: > 10 µM (inactive) | GI50 [57]: > 10 µM (inactive)

CN(C)c1ccc(/C=C(\NC(=O)c2ccccc2)C(=O)NC(CCC(=O)O)C(=O)O)cc1 (stereo unspecified)
GI50 [1]: > 100 µM (inactive) | GI50 [2]: > 100 µM (inactive) | GI50 [3]: > 100 µM (inactive) | GI50 [4]: > 100 µM (inactive) | GI50 [5]: > 100 µM (inactive) | GI50 [6]: > 100 µM (inactive) | GI50 [7]: > 100 µM (inactive) | GI50 [8]: > 100 µM (inactive) | GI50 [9]: > 100 µM (inactive) | GI50 [10]: > 100 µM (inactive) | GI50 [11]: > 100 µM (inactive) | GI50 [12]: > 100 µM (inactive) | GI50 [13]: > 100 µM (inactive) | GI50 [14]: > 100 µM (inactive) | GI50 [15]: > 100 µM (inactive) | GI50 [16]: > 100 µM (inactive) | GI50 [17]: > 100 µM (inactive) | GI50 [18]: > 100 µM (inactive) | GI50 [19]: > 100 µM (inactive) | GI50 [20]: > 100 µM (inactive) | GI50 [21]: > 100 µM (inactive) | GI50 [22]: > 100 µM (inactive) | GI50 [23]: > 100 µM (inactive) | GI50 [24]: > 100 µM | GI50 [25]: > 100 µM (inactive) | GI50 [26]: > 100 µM (inactive) | GI50 [27]: > 100 µM (inactive) | GI50 [28]: > 100 µM (inactive) | GI50 [29]: > 100 µM (inactive) | GI50 [30]: > 100 µM (inactive) | GI50 [31]: > 100 µM (inactive) | GI50 [32]: > 100 µM (inactive) | GI50 [33]: > 100 µM (inactive) | GI50 [34]: > 100 µM (inactive) | GI50 [35]: > 100 µM (inactive) | GI50 [36]: > 100 µM (inactive) | GI50 [37]: > 100 µM (inactive) | GI50 [38]: > 100 µM (inactive) | GI50 [39]: > 100 µM (inactive) | GI50 [40]: > 100 µM (inactive) | GI50 [41]: > 100 µM (inactive) | GI50 [59]: > 100 µM (inactive) | GI50 [42]: > 100 µM (inactive) | GI50 [43]: > 100 µM (inactive) | GI50 [44]: > 100 µM (inactive) | GI50 [45]: > 100 µM (inactive) | GI50 [46]: > 100 µM (inactive) | GI50 [47]: > 100 µM (inactive) | GI50 [48]: > 100 µM (inactive) | GI50 [49]: > 100 µM (inactive) | GI50 [50]: > 100 µM (inactive) | GI50 [51]: > 100 µM (inactive) | GI50 [52]: > 100 µM (inactive) | GI50 [53]: > 100 µM (inactive) | GI50 [54]: > 100 µM (inactive) | GI50 [55]: > 100 µM (inactive) | GI50 [56]: > 100 µM (inactive) | GI50 [57]: > 100 µM (inactive)
